The source made the active and inactive calls. The calls are words filed in the database; no cut-off is given here.

In experiment [1] the target is T1, Type-1 angiotensin II receptor (Bos taurus, UniProt P25104).
T1 sequence (P25104 whole entry): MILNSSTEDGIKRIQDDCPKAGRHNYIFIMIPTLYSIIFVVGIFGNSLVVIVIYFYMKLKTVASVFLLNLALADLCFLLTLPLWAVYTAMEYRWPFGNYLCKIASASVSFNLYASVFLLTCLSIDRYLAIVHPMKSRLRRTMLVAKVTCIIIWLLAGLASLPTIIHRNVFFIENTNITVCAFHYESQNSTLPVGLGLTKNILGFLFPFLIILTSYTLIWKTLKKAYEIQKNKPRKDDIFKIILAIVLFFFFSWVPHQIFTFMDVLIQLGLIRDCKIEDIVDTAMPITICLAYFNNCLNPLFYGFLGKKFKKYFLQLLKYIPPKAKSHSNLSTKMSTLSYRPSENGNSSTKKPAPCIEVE
Briefly: Displacement of [125I]angiotensin-2 from bovine adrenal cortex AT1 receptor. The experiment is classed as tissue-based.

Experiment [2] has as its target T2, Type-1 angiotensin II receptor (Oryctolagus cuniculus, UniProt P34976).
T2 sequence (P34976 whole entry): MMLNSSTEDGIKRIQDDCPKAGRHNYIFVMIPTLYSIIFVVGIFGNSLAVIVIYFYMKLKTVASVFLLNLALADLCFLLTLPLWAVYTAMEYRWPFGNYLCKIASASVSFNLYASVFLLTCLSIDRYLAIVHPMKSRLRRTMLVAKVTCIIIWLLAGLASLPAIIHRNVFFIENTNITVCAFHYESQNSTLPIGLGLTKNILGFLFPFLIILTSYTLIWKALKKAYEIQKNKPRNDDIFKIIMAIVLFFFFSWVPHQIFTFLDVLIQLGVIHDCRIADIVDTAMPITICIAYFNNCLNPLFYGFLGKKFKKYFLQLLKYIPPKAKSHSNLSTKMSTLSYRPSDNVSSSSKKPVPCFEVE
Briefly: Antagonist activity at AT1 receptor assessed inhibition of angiotensin-2-induced contraction of rabbit thoracic aortic rings. The conditions noted are these: read-out: pA2 (converted). The experiment is classed as functional.

Experiment [3] concerns the target T3, Type-1 angiotensin II receptor (Oryctolagus cuniculus) (UniProt P34976).
T3 sequence (whole entry): T2 sequence (P34976 whole entry)
Kind of experiment: Antagonist activity at AT1 receptor assessed inhibition of norepinephrine-induced contraction of rabbit thoracic aortic rings. The format is functional.

Experiment [4] addresses T3, Type-1 angiotensin II receptor (Oryctolagus cuniculus). Briefly: Antagonist activity at AT1 receptor assessed inhibition of KCl-induced contraction of rabbit thoracic aortic rings. The format is functional.
The target is the same in experiment [5]. Kind of experiment: Antagonist activity at AT1 receptor assessed inhibition of histamine-induced contraction of rabbit thoracic aortic rings. The format is functional.
Experiment [6] has as its system Rattus norvegicus. Kind of experiment: Inhibition of angiotensin-2-induced pressor response in normotensive rat at 1 mg/kg, po. The arrangement: dose 1 mg/kg. The experiment is classed as functional, organism-based.
Experiment [7] relates to Rattus norvegicus. Kind of experiment: Decrease in mean arterial pressure in po dosed spontaneously hypertensive rat. The experiment is classed as functional, organism-based. The conditions noted are these: Artery.
Experiment [8] deals with Rattus norvegicus. Briefly: Reduction of mean arterial pressure in spontaneously hypertensive rat at 1 mg/kg, po. The experiment is classed as functional, organism-based. As to conditions: Artery. Also on record: dose 1 mg/kg.

Turning to `CCCCc1nc2cccc(C(=O)O)c2n1Cc1ccc(-n2cccc2-c2nnn[nH]2)cc1`, the half-inhibitory concentration (IC50) in experiment [1] was 6.9 nM. The Kb in experiment [2] is 3.16 nM. The outcome in experiment [3], in experiment [4] and in experiment [5] was inactive. The outcome in the experiment with Rattus norvegicus [6] and in the experiment with Rattus norvegicus [8] was Active. In the experiment on Rattus norvegicus [7], the Activity entry was “Dose-dependent effect”.
Turning to `CCc1nc2cccc(C(=O)OC)c2n1Cc1ccc(-n2cccc2-c2nnn[nH]2)cc1`, the IC50 in experiment [1] is 140 nM. The Kb in experiment [2] was 31.6 nM.
Compound `CCCc1nc2cccc(C(=O)O)c2n1Cc1ccc(-n2cccc2-c2nnn[nH]2)cc1` had an IC50 in experiment [1] of 16 nM. In addition, in experiment [2], the Kb was 6.31 nM.
`CCCCc1nc2cccc(C(=O)OCC)c2n1Cc1ccc(-n2cccc2-c2nnn[nH]2)cc1`: the IC50 in experiment [1] stood at 19 nM. Besides, the Kb in experiment [2] is 15.8 nM.
Compound `CCCCc1nc2cccc(C(=O)O)c2n1Cc1ccc(-n2cccc2C(=O)O)cc1` returned an IC50 in experiment [1] of 33 nM. For the same compound, in experiment [2], the Kb was 10 nM.
Turning to `Cc1nc2cccc(C(=O)O)c2n1Cc1ccc(-n2cccc2C(=O)O)cc1`, in experiment [1], the IC50 is 250 nM. Also, the Kb in experiment [2] was 1260 nM.
The compound `CCCc1nc2cccc(C(=O)OC)c2n1Cc1ccc(-n2cccc2-c2nnn[nH]2)cc1` registered an IC50 in experiment [1] of 32 nM. Moreover, the Kb in experiment [2] was 12.6 nM.
The compound `CCCc1nc2cccc(C(=O)OCC)c2n1Cc1ccc(-n2cccc2-c2nnn[nH]2)cc1` registered an IC50 in experiment [1] of 41 nM. Also, the Kb in experiment [2] was 79.4 nM.
`CCCc1nc2cccc(C(=O)O)c2n1Cc1ccc(-n2cccc2C(=O)O)cc1`: the IC50 in experiment [1] came out at 92 nM. The Kb in experiment [2] is 100 nM.
Take `CCc1nc2cccc(C(=O)O)c2n1Cc1ccc(-n2cccc2C(=O)O)cc1`: the IC50 in experiment [1] turned out to be 160 nM. Further, in experiment [2], the Kb is 316 nM.
The like results for `COC(=O)c1cccc2nc(C)n(Cc3ccc(-n4cccc4-c4nnn[nH]4)cc3)c12` were, in that order, 200 nM and 100 nM.
As to `CCCCc1nc2cccc(C(=O)OC)c2n1Cc1ccc(-n2cccc2-c2nnn[nH]2)cc1`, the concentration for half-maximal inhibition (IC50) in experiment [1] was determined as 9.8 nM. The Kb in experiment [2] is 3.98 nM. The outcome in experiment [3], in experiment [4] and in experiment [5] was inactive. Moreover, the result in the experiment with Rattus norvegicus [6] and in the experiment with Rattus norvegicus [8] was Active. Besides, the Activity entry in the experiment on Rattus norvegicus [7] was “Dose-dependent effect”.

As a reminder, the IC50 is the midpoint of a concentration-inhibition curve. Low readings indicate greater potency, high ones weaker potency.

Values taken from ChEMBL document CHEMBL1139921, “Synthesis and biological activity of 2-alkylbenzimidazoles bearing a N-phenylpyrrole moiety as novel angiotensin II AT1 receptor antagonists” (Bioorg Med Chem Lett, 2007).
